# Reference: PubChem BioAssay (NCI)
#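 Cells were grown in 96-well plates and exposed to each compound for 48 hours at five concentrations; endpoints were interpolated linearly between bracketing concentrations, or set to the highest concentration if not reached. Abbreviation: GI50, concentration required for 50% inhibition of growth. TGI is the concentration that stops growth completely.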
# Assays:
# Experiment in all cases: NCI tumour cell line growth inhibition, 48 h
# U251 CNS = test system: U251 CNS
# SK-OV-3 ovarian = test system: SK-OV-3 ovarian
# SF-539 CNS = test system: SF-539 CNS
# OVCAR-8 ovarian = test system: OVCAR-8 ovarian
# K-562 leukemia = test system: K-562 leukemia
# SNB-19 CNS = test system: SNB-19 CNS
# NCI/ADR-RES ovarian = test system: NCI/ADR-RES ovarian
# HL-60(TB) leukemia = test system: HL-60(TB) leukemia
# SR leukemia = test system: SR leukemia
# UACC-257 melanoma = test system: UACC-257 melanoma
# SN12C renal = test system: SN12C renal
# UO-31 renal = test system: UO-31 renal
# NCI-H226 lung = test system: NCI-H226 lung
# CCRF-CEM leukemia = test system: CCRF-CEM leukemia
# UACC-62 melanoma = test system: UACC-62 melanoma
# HCT-116 colon = test system: HCT-116 colon
# A549 NSCLC = test system: A549 NSCLC
# OVCAR-4 ovarian = test system: OVCAR-4 ovarian
# MCF7 breast = test system: MCF7 breast
# SNB-75 CNS = test system: SNB-75 CNS
# SK-MEL-5 melanoma = test system: SK-MEL-5 melanoma
# RXF 393 renal = test system: RXF 393 renal
# MOLT-4 leukemia = test system: MOLT-4 leukemia
# HOP-62 NSCLC = test system: HOP-62 NSCLC
# PC-3 prostate = test system: PC-3 prostate
# HT29 colon = test system: HT29 colon
# T-47D breast = test system: T-47D breast
# HOP-92 NSCLC = test system: HOP-92 NSCLC
# SK-MEL-28 melanoma = test system: SK-MEL-28 melanoma
# MDA-MB-231 breast = test system: MDA-MB-231 breast
# OVCAR-5 ovarian = test system: OVCAR-5 ovarian
# NCI-H23 lung = test system: NCI-H23 lung
# CAKI-1 renal = test system: CAKI-1 renal
# EKVX NSCLC = test system: EKVX NSCLC
# LOX IMVI melanoma = test system: LOX IMVI melanoma
# A498 renal = test system: A498 renal
# MDA-MB-435 = test system: MDA-MB-435
# TK-10 renal = test system: TK-10 renal
# HS 578T breast = test system: HS 578T breast
# BT-549 breast = test system: BT-549 breast
# NCI-H522 lung = test system: NCI-H522 lung
# 786-0 renal = test system: 786-0 renal
# COLO 205 colon = test system: COLO 205 colon
# HCC-2998 colon = test system: HCC-2998 colon
# MALME-3M melanoma = test system: MALME-3M melanoma
# HCT-15 colon = test system: HCT-15 colon
# M14 melanoma = test system: M14 melanoma
# RPMI-8226 leukemia = test system: RPMI-8226 leukemia
# SF-295 CNS = test system: SF-295 CNS
# ACHN renal = test system: ACHN renal
# SW-620 colon = test system: SW-620 colon
# NCI-H460 lung = test system: NCI-H460 lung
smiles,measurement,setting,value
NC1CCN(c2nc(Nc3cccc(C(F)(F)F)c3)c3c(=O)[nH]ccc3n2)CC1,GI50,U251 CNS,1730 nM
same,TGI,U251 CNS,3550 nM
same,GI50,SK-OV-3 ovarian,1080 nM
same,TGI,SK-OV-3 ovarian,2390 nM
same,GI50,SF-539 CNS,1770 nM
same,TGI,SF-539 CNS,3260 nM
same,GI50,OVCAR-8 ovarian,2060 nM
same,TGI,OVCAR-8 ovarian,4910 nM
same,GI50,K-562 leukemia,1180 nM
same,TGI,K-562 leukemia,3210 nM
same,GI50,SNB-19 CNS,2000 nM
same,TGI,SNB-19 CNS,3590 nM
same,GI50,NCI/ADR-RES ovarian,1870 nM
same,TGI,NCI/ADR-RES ovarian,3630 nM
same,GI50,HL-60(TB) leukemia,603 nM
same,TGI,HL-60(TB) leukemia,2410 nM
same,GI50,SR leukemia,774 nM
same,TGI,SR leukemia,2820 nM
same,GI50,UACC-257 melanoma,2060 nM
same,TGI,UACC-257 melanoma,3980 nM
same,GI50,SN12C renal,1370 nM
same,TGI,SN12C renal,2800 nM
same,GI50,UO-31 renal,1190 nM
same,TGI,UO-31 renal,2620 nM
same,GI50,NCI-H226 lung,1860 nM
same,TGI,NCI-H226 lung,3700 nM
same,GI50,CCRF-CEM leukemia,1260 nM
same,TGI,CCRF-CEM leukemia,6880 nM
same,GI50,UACC-62 melanoma,1830 nM
same,TGI,UACC-62 melanoma,3510 nM
same,GI50,HCT-116 colon,1090 nM
same,TGI,HCT-116 colon,2300 nM
same,GI50,A549 NSCLC,1340 nM
same,TGI,A549 NSCLC,2990 nM
same,GI50,OVCAR-4 ovarian,1530 nM
same,TGI,OVCAR-4 ovarian,3840 nM
same,GI50,MCF7 breast,1350 nM
same,TGI,MCF7 breast,3020 nM
same,GI50,SNB-75 CNS,1770 nM
same,TGI,SNB-75 CNS,3190 nM
same,GI50,SK-MEL-5 melanoma,1540 nM
same,TGI,SK-MEL-5 melanoma,2900 nM
same,GI50,RXF 393 renal,1310 nM
same,TGI,RXF 393 renal,2670 nM
same,GI50,MOLT-4 leukemia,1050 nM
same,TGI,MOLT-4 leukemia,4800 nM
same,GI50,HOP-62 NSCLC,1760 nM
same,TGI,HOP-62 NSCLC,3540 nM
same,GI50,PC-3 prostate,1780 nM
same,TGI,PC-3 prostate,3590 nM
same,GI50,HT29 colon,1170 nM
same,TGI,HT29 colon,4890 nM
same,GI50,T-47D breast,1560 nM
same,TGI,T-47D breast,3260 nM
same,GI50,HOP-92 NSCLC,1440 nM
same,TGI,HOP-92 NSCLC,3040 nM
same,GI50,SK-MEL-28 melanoma,1820 nM
same,TGI,SK-MEL-28 melanoma,3320 nM
same,GI50,MDA-MB-231 breast,2000 nM
same,TGI,MDA-MB-231 breast,3600 nM
same,GI50,OVCAR-5 ovarian,1680 nM
same,TGI,OVCAR-5 ovarian,3440 nM
same,GI50,NCI-H23 lung,1580 nM
same,TGI,NCI-H23 lung,3110 nM
same,GI50,CAKI-1 renal,444 nM
same,TGI,CAKI-1 renal,1880 nM
same,GI50,EKVX NSCLC,1350 nM
same,TGI,EKVX NSCLC,3160 nM
same,GI50,LOX IMVI melanoma,1330 nM
same,TGI,LOX IMVI melanoma,2720 nM
same,GI50,A498 renal,1640 nM
same,TGI,A498 renal,3140 nM
same,GI50,MDA-MB-435,1090 nM
same,TGI,MDA-MB-435,2420 nM
same,GI50,TK-10 renal,1300 nM
same,TGI,TK-10 renal,2720 nM
same,GI50,HS 578T breast,1640 nM
same,TGI,HS 578T breast,4260 nM
same,GI50,BT-549 breast,1590 nM
same,TGI,BT-549 breast,3000 nM
same,GI50,NCI-H522 lung,1760 nM
same,TGI,NCI-H522 lung,3570 nM
same,GI50,786-0 renal,1240 nM
same,TGI,786-0 renal,2550 nM
same,GI50,COLO 205 colon,1400 nM
same,TGI,COLO 205 colon,2820 nM
same,GI50,HCC-2998 colon,1600 nM
same,TGI,HCC-2998 colon,3000 nM
same,GI50,MALME-3M melanoma,1880 nM
same,TGI,MALME-3M melanoma,3830 nM
same,GI50,HCT-15 colon,584 nM
same,TGI,HCT-15 colon,2260 nM
same,GI50,M14 melanoma,1010 nM
same,TGI,M14 melanoma,2230 nM
same,GI50,RPMI-8226 leukemia,1910 nM
same,TGI,RPMI-8226 leukemia,4840 nM
same,GI50,SF-295 CNS,1960 nM
same,TGI,SF-295 CNS,3590 nM
same,GI50,ACHN renal,944 nM
same,TGI,ACHN renal,2210 nM
same,GI50,SW-620 colon,1190 nM
same,TGI,SW-620 colon,2670 nM
same,GI50,NCI-H460 lung,1260 nM
same,TGI,NCI-H460 lung,2800 nM
